Results: patent publication US20240190838A1, “LZK-TARGETING DEGRADERS AND METHODS OF USE” (The U.S.A., as represented by the Secretary, Department of …, priority 2020, published 2024)

What was measured:
Type in all cases: cell-based
LZK = molecular target: T1, LZK (Homo sapiens, UniProt O43283); assay: LZK inhibition in cells monitored by downstream JNK phosphorylation (dox-induced LZK); set-up: V5 (named only in the vector); expressed in transfected cells; host or cells: CAL33 HNSCC cells, lentiviral T-REx system, induced with doxycycline; details: for duration of JNK pathway inactivation / time at which LZK activity toward JNK was inhibited: 250 nM; for LZK inhibition in cells, measured by inhibition of downstream JNK pathway activation: dox-inducible LZK in CAL33 cells
T1 sequence (O43283 1-966): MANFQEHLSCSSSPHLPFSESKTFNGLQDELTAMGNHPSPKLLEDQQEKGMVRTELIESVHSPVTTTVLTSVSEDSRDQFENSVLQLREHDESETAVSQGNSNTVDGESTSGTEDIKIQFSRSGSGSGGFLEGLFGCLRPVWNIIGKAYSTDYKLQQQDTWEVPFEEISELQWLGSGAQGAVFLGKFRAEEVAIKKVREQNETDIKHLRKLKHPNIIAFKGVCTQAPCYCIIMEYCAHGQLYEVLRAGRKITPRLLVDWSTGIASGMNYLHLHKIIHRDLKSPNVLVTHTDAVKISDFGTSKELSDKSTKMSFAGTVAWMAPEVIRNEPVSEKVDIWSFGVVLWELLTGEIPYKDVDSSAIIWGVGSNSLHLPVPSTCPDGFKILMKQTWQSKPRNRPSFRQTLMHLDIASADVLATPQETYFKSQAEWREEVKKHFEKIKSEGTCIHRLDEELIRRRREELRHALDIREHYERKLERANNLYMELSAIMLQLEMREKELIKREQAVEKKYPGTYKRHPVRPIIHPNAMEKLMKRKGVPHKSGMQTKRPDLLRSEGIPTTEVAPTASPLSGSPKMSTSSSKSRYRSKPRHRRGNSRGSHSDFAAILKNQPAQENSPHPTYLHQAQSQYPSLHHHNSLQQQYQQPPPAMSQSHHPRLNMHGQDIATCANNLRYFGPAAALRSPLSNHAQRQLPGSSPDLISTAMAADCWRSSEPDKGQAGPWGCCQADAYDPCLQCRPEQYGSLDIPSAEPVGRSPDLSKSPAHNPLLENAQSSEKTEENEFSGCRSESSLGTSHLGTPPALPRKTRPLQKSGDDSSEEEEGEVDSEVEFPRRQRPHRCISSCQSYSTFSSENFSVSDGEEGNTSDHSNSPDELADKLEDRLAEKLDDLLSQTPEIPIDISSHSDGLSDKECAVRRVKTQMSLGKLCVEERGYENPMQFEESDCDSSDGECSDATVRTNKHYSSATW
Excerpt: The ViraPower HiPerform T-REx Gateway Expression System (Invitrogen) was used to generate cells with tetracycline-inducible expression of LZK. In brief, wild-type (WT) or drug-resistant mutant (Q240S) LZK (cloned into pLenti6.3/TO/V5-DEST vector) and pLenti3.3/TR (for tetracycline repressor expression) were transfected into 293FT cells using Lipofectamine 2000 to generate lentiviral stock. Cell lines were generated by antibiotic selection (blasticidin [Gibco] and geneticin [Gibco]). Doxycycline (Sigma-Aldrich) was used at 1 μg/mL to induce LZK expression.
Generally, cells were plated in six-well or 35-mm plates for 24 hours, after which doxycycline was added or treatment with specific inhibitor was administered using […] for 48 hours. After appropriate treatment time, cells were washed with ice-cold phosphate-buffered saline without Ca and Mg (Quality Biological) and then lysed on ice with RIPA buffer (50 mM NaCl, 1.0% o IGEPAL® CA-630, 0.5% o sodium deoxycholate, 0.10% SDS, 50 mM Tris, pH 8.0) (Sigma-Aldrich) supplemented with protease inhibitor tablet (Sigma-Aldrich) and phosphatase inhibitor cocktails 2 and 3 (Sigma-Aldrich) followed by centrifugation at 15,000 rpm for 10 minutes at 4° C. Protein concentrations were determined from the cell lysate by using 660 nm Protein Assay Reagent (Pierce). Cell extracts were denatured, subjected to SDS-PAGE, transferred to PVDF membranes (Bio-Rad) and blocked for 2 hours using 5 bovine serum albumin (BSA) in phosphate-buffered saline and 0.10 Tween® 20 (PBS-T). The membranes were incubated with the specific antibodies overnight in […] at 4° C. followed by a 1 hour incubation with the appropriate horseradish peroxidase-conjugated secondary antibodies and signal was detected by chemiluminescence (Thermo Fisher).
A PathScan® Phospho-SAPK/JNK (Thr183/Tyr185) Sandwich ELISA Assay (Cell Signaling Technology) was used for ELISA assays following the manufacturer's protocol. In general, 500,000 cells were plated and treated with doxycycline the following day where appropriate and incubated at 37° C. for 48 hours. Cells were treated with the drug compound or control in 5% FBS media for 1 hour. After appropriate treatment time, cells were lysed on ice with 1x Cell Lysis Buffer (Cell Signaling Technology) supplemented with phosphatase and protease inhibitors (Sigma). Each diluted cell lysate was added to Phospho-SAPK/JNK (Thr183/Tyr185)Rabbit mAb Coated microwells in triplicate and incubated overnight at 4° C. Samples were treated with the following antibodies and incubated at 37° C. for 1 hour and 30 minutes, respectively: Detection Antibody and HRP-Linked secondary antibody. Samples were washed between treatments using 1× Wash Buffer according to the manufacturer's protocol. TMB substrate was added to each well and incubated at 37° C. for 10 minutes. Following this, STOPsolution was added to each well and absorbance was measured at 450 nm using iMark™ Microplate Absorbance Reader (Bio-Rad). Graphs display relative phospho-JNK levels.

CAL33 cells [1] = assay: Colony formation assay, CAL33
Experimental: (§1) Crystal violet assays were used to assess relative cell growth and survival after treatment with specific compounds. In general, cells were plated in triplicate in 12-well plates for 24 hours before drug treatments were added using 10% FBS media. The plates were incubated for 14 days, with the media and drug being replaced every 48 hours. The cells were then washed with phosphate-buffered saline and fixed in ice-cold methanol before being stained with 0.5% crystal violet (Sigma-Aldrich) in 25% methanol. Images were taken using a ChemiDoc MP Imaging System (Bio Rad), and for quantification, the crystal violet stain was dissolved in 33% acetic acid, incubated for 20 minutes with shaking, and read at 595 nm using iMark™ Microplate Absorbance Reader (Bio-Rad). Graphs display percent colony formation relative to the DMSO-treated control sample.

NCI-H520 cells = assay: Colony formation assay, NCI-H520
Experimental: as §1

LK2 cells = assay: Colony formation assay, LK2
Experimental: as §1

CAL33 cells [2] = assay: MTS cell viability assay, CAL33
Experimental: A Cell Titer 96 AQueous One Solution Cell Proliferation Assay (Promega) was used for MTS assays following the manufacturer's protocol. […] MTS was added, cells were incubated for two hours, and absorbance was measured at 490 nm using iMark™ Microplate Absorbance Reader (Bio-Rad). Graphs display percent cell viability relative to the DMSO-treated control sample. EC50 values were determined using GraphPad Prism 8.

BICR56 cells = assay: Colony formation assay, BICR56
Experimental: as §1

[3] = LZK inhibitor 2, concentration not stated

For `Cc1ncsc1-c1ccc([C@H](C)NC(=O)[C@@H]2C[C@@H](O)CN2C(=O)[C@@H](NC(=O)CCCCCCC(=O)N2CCC(c3cc(Nc4cc(C#N)ccn4)nc(N4CCC(F)(F)C4)c3)CC2)C(C)(C)C)cc1` [Compound 3], the “JNK signaling inhibition by targeted degraders” value (LZK; CAL33 cells induced with doxycycline, 0-10 μM) was “inhibited JNK signaling”, the clonogenic growth (CAL33 cells [1]; 1 μM for 14 days) was “significant decreases in clonogenic growth” and the colony formation (CAL33 cells [1]; 2.5 μM) was “almost complete loss of colony formation”. The LSCC cell growth (NCI-H520 cells; 2.5 μM) was “significantly decreased LSCC cell growth”, the LSCC cell growth (LK2 cells; 2.5 μM) was “significantly decreased LSCC cell growth” and the short-term cell viability (CAL33 cells [2]) was “reduced”. The clonogenic growth (BICR56 cells; 1 μM for 14 days) was “significant decreases in clonogenic growth” and the colony formation (BICR56 cells; 2.5 μM) was “almost complete loss of colony formation”.

For `CC(=O)N1CCC(c2cc(Nc3cc(C#N)ccn3)nc(N3CCC(F)(F)C3)c2)CC1` [LZK inhibitor 2], the “duration of JNK pathway inactivation” value (LZK) was 72 h, the “time at which LZK activity toward JNK was inhibited” value (LZK) was “five” and the “concentration at which LZK activity was suppressed” value (LZK; 1 hour) was 100 nM. For the same compound, the “LZK inhibition in cells, measured by inhibition of downstream JNK pathway activation” value (LZK) was “potent LZK inhibitor”, the “JNK signaling inhibition compared with GNE-3511” value (LZK; one hour) was “inhibited JNK signaling at lower concentrations than GNE-3511” and the colony formation (CAL33 cells [1]; [3]) was “suppressed colony formation”. The LSCC cell growth (NCI-H520 cells; 1 μM) was “significantly decreased LSCC cell growth”, the LSCC cell growth (LK2 cells; 1 μM) was “significantly decreased LSCC cell growth” and the “rescue of drug-induced loss of viability by LZK^Q240S expression” value (CAL33 cells [2]; 72-hour MTS assay) was “rescued decreases in viability”. For the same compound, the colony formation (BICR56 cells; [3]) was “suppressed colony formation”.

With `N#Cc1ccnc(Nc2cc(C3CCN(C4COC4)CC3)cc(N3CCC(F)(F)C3)n2)c1` [GNE-3511] the “LZK activity, as monitored by downstream JNK phosphorylation” value (LZK; 100 nM to 5 μM at 1 hour) was “inhibited LZK activity”, the “duration of JNK pathway inactivation” value (LZK) was “up to 72 hours” and the “time at which LZK activity toward JNK was inhibited” value (LZK) was ≤ 15 min. For the same compound, the “LZK inhibition in cells, measured by inhibition of downstream JNK pathway activation” value (LZK) was “potent LZK inhibitor in cells”, the “reduction in colony formation” value (CAL33 cells [1]; 200 nM, 14 days) was ≥ 80% and the “reduction in colony formation” value (NCI-H520 cells; 500 nM) was 55%. For the same compound, the “reduction in colony formation” value (LK2 cells; 500 nM) was 45%, the IC50 (CAL33 cells [2]; Homo sapiens, CAL-33, 72 hours, read-out: IC50, viability in short-term MTS assay) was 688 ± 114 nM and the “reduction in colony formation” value (BICR56 cells; 200 nM, 14 days) was ≥ 80%.
